{"source": "patent US20130053323A1", "about": "“METHODS AND USE RELATED TO HUMANIN AND HUMANIN-LIKE PEPTIDES” (priority 2009, published 2013)", "key": {"[1]": {"test_system": "neuroblastoma (SK-N-BE(2)) xenograft", "experiment": "Tumor volume in neuroblastoma xenograft in NMRI nude mice", "format": "in vivo, human", "details": "bortezomib + HNG i.p., until day 13"}, "[2]": {"test_system": "fetal rat metatarsal bones", "experiment": "Longitudinal growth of cultured fetal rat metatarsal bones", "format": "cell-based", "description": "The three middle metatarsal bone rudiments were dissected out from the paws of 20-day-old embryos (E20) (De Luca, Barnes et al. 2001). After dissection, bones were transferred to 24-well plates, one bone per well and cultured in 0.5 ml phenol-red MEM medium supplemented with 0.2% endotoxin-free fraction BSA, […] β-glycerophosphate, 0.05 mg/ml ascorbic acid and 100 μg/ml penicillin/streptomycin at 37° C. under 5% CO2 in humidified atmosphere. Medium was changed every 2-3 days. Images were captured at days 0, 2, 5, 7, 9 and 12 of culture, using a Hamamatsu C4742-95 digital camera mounted on a Nikon SMZ-U microscope. The Image-Pro plus™ (Media Cybernetics, USA) software was used to measure longitudinal growth. Metatarsal bone growth is expressed as a percentage of the length at the day of dissection (regarded as day 0). Treatment with CT (bortezomib), dexamethasone and/or HNG (S14G) was started 2-4 hours after dissection. All isolated bones were pooled and then randomly divided into the different treatment groups (4 to 6 bones per group). Each experiment was repeated at least 3 times.\nThe data shown in FIG. 2A indicates novel growth promoting/protective effects of humanin analog HNG (S14G) on longitudinal bone growth in cultured fetal rat metatarsal bones. […] Briefly, fetal rat metatarsal bones were pre-treated with different concentrations (mentioned in the figure) of HNG (S14G), 30 min prior to addition of Dexa. […] (n=4-6 bones/group)\nCT (bortezomib) is a cytotoxic drug known to cause critical alterations in cells/tissues and disturb the cellular homeostasis. To test the effect of CT (bortezomib) on chondocytes and longitudinal bone growth, the established in vitro model of fetal rat metatarsal bones was used. These bones were collected as described in material and methods, cultured and treated with different concentrations of CT (bortezomib) under sterile conditions for up to 12 days. […] Apoptosis was analyzed in whole growth plate sections of 12-day cultured rat metatarsal bones (perichondrium excluded) by applying the TUNEL technique to detect DNA fragmentation.\nIn an attempt to block and prevent the negative effects on growth after CT (bortezomib)-treatment, recently discovered humanin analog HNG (S14G) was tested in vitro in fetal rat metatarsal bones."}, "[3]": {"test_system": "apoptosis inducing factor (AIF) and BAX", "experiment": "Western immunoblotting of pro-apoptotic proteins in C5.18 chondrocytic cell line", "format": "cell-based, rat", "details": "100 nM HNG/1000 nM bortezomib, 6hrs", "description": "Western immunoblotting to study protein expression was performed in the rat C5.18 chondrocytic cell line after treatment with 1000 nM CT (bortezomib) or 100 nM humanin analog HNG (S14G)/1000 nM CT (bortezomib (Btz)) for 6hrs. […] By adding humanin analog HNG (S14G), the up-regulation and activation of the two pro-apoptotic proteins were suppressed. […] As an internal control the house-keeping gene, GAPDH (35 kDa) was used. The experiment was repeated twice."}, "[4]": {"test_system": "growth plate cartilage", "experiment": "Growth plate histology, resting and proliferating chondrocyte zone (R+P)", "format": "in vivo, mice", "details": "four weeks", "description": "Four weeks old mice (female, FVB) were injected with Dexa dissolved in saline ([…]) subcutaneously in the neck every day for four week. Whereas, HNG (S14G) dissolved in saline (1 μg/mice) was injected intra-peritoneally, 45 minutes prior to the Dexa injection for four weeks, for details see materials and methods. The femur and tibia bones were dissected out and fixed in 4% formalin for 24 hrs, followed by decalcification in 10% EDTA and embedded in paraffin blocks. Five-micrometer-thick sections were prepared from these paraffin blocks. The sections were prepared from the tibial growth plate and stained with Van Gieson. Digital images of stained sections were collected using a Nikon Eclipse E800 microscope (Nikon Corp., Tokyo, Japan) equipped with an Olympus DP70 digital camera (Olympus Sverige AB, Solna, Sweden).\nSince a positive effect of HNG (S14G) on bone growth was identified, different zones of chondrocytes were analyzed (resting, proliferative and hypertrophic) in growth plate cartilage, to identify visible changes in these zones. […] These micropgraphas also explain the longitudinal bone growth promoting effects by HNG (S14G) alone or in combination with Dexa."}, "[5]": {"test_system": "FVB mice", "experiment": "Bone mineral density by dual energy X-ray absorptiometry in FVB mice", "format": "in vivo", "details": "HNG 1 μg/mice/day for four weeks, vs vehicle", "description": "Areal bone mineral density (BMD; BMC/cm^2) and BMC were measured by dual energy X-ray absorptiometry (DXA) using the Lunar PIXImus mouse densitometer (Wipro GE Healthcare, Madison, Wisc.). Ex vivo measurements were taken from FVB mice treated with Dexa and HNG for four weeks (for details see methods and materials). The measurements of left femur and tibia were performed on excised bones placed on a 1-cm-thick Plexiglas™ table. All bones compared were measured in the same scan (high-resolution scan with line spacing set at 0.01 cm). n=9-10/animals/group.\nIn the light of the above findings where it was observed rescuing effects of HNG (S14G) on bone growth both in vitro and in vivo, it was analyzed whether HNG (S14G) has the capacity to regulate BMD. […] Trabecular BMD in tibia (mg/cm^3) of four-week old FVB mice treated for 4 weeks was measured by using DEXA (see protocol in material and methods)."}}, "note": "“Also recorded” adds a separate entry of the source."}
{"substance": "S14G-HN (MAPRGFSCLLLLTGEIDLPVKRRA) [HNG (S14G)]", "values": [{"measurement": "interference with anti-cancer effect of bortezomib (tumor volume)", "setting": "[1]", "value": "does not interfere with the anti-cancer effect"}, {"measurement": "bone growth by itself", "setting": "[2]; HNG alone, 100 nM, day 12, vs control", "value": "improved bone growth by itself; also recorded: trend to promote bone growth on its own"}, {"measurement": "rescue of the growth of bones", "setting": "[2]; HNG in combination with 25 nM bortezomib, p<0.001", "value": "up to 50%"}, {"measurement": "rescue of growth impairment", "setting": "[2]; HNG with bortezomib 50 nM and above", "value": "not able to rescue the growth impairment"}, {"measurement": "rescue from Dexa-induced growth retardation", "setting": "[2]; different doses of HNG added 30 min prior to Dexa 1 μM", "value": "significantly rescued the bones from Dexa-induced growth retardation"}, {"measurement": "bortezomib-induced up-regulation and activation of AIF and BAX", "setting": "[3]", "value": "suppressed"}, {"measurement": "size of resting and proliferating chondrocyte zone (R+P)", "setting": "[4]; HNG (S14G)/Dexa, vs Dexa only", "value": "larger than in the Dexa only treated group"}, {"measurement": "size of resting and proliferating chondrocyte zone (R+P)", "setting": "[4]; HNG alone 1 μg/mice, vs all other groups", "value": "appears to be larger"}, {"measurement": "trabecular BMD in tibia", "setting": "[5]", "value": "trend towards increased BMD"}]}
